Measurements published in paper PMC7395068, “The evolution of strategies to minimise the risk of human drug-induced liver injury (DILI) in drug discovery and development” (Archives of Toxicology, 2020).
Where two headings read alike, the source gives them in different places.

Experiments:
[1] = test system: THLE-Null and THLE-3A4 cells; conditions: In vitro Assay; ref Gustafsson 2014; cited from earlier work
[2] = plasma free fraction; cited from earlier work
[3] = test system: HepG2 cells; conditions: cited from earlier work
[4] = test system: HepaRG spheroids; test: Combined HCI (HCS) and cellular ATP 3D assay in HepaRG spheroids; conditions: for AC50 / minimal effective concentration: Homo sapiens
[5] = test system: PHH liver spheroid; design: method as in Foster et al. 2019; conditions: liver-chip of comparable sensitivity, ref Foster et al. 2019; cited from earlier work
[6] = test system: rBsep; conditions: In vitro Assay; ref Dawson 2012; cited from earlier work
[7] = test system: HepG2 cells; conditions: cited from earlier work; remark: listed apart in the source
[8] = cited from earlier work
[9] = test system: PHH spheroids; conditions: cited from earlier work
[10] = Plasma free fraction (fu) and unbound Cmax (Cmax,u); type: in vitro ADME, human; conditions: unbound plasma Cmax
Method: The prediction of DILI severity was evaluated further using the 3D combined HCI assays using plasma-free fraction. The majority of fu values were obtained from literature, when unavailable in-house prediction was utilised. Unbound plasma Cmax concentrations (Cmax,u) were derived by multiplying total plasma Cmax with the corresponding free fraction (fu) for each compound.

[11] = cited from earlier work; remark: listed apart in the source
[12] = test system: PHH spheroids; design: method as in Bell et al. 2016; conditions: 48-h exposure; ref Bell et al. 2016; cited from earlier work
[13] = test system: hLiMTs; test: Combined HCI (HCS) and cellular ATP 3D assay in hLiMTs
[14] = phase I clinical trials; ref Manning and Swartz 1995; McKenzie et al. 1995; cited from earlier work
[15] = test system: HepG2 cells; conditions: cited from earlier work; remark: listed apart in the source
[16] = read-out: Human plasma Cmax; total plasma Cmax.tot, median of 9 literature references; cited from earlier work
[17] = Microtissue model structural based (HCI), combined HCS and ATP, MEC < 25 × Cmax.tot cut-off
[18] = In vitro Assay, ref Persson 2013

For `O=c1[nH]c(=O)n([C@@H]2O[C@H](CO)[C@@H](O)[C@@H]2F)cc1I` [fialuridine], the THLE-Null [1] is given as “-VE”, the THLE-Null/3A4 [1] is given as “-VE” and the fu [2] is given as 0.360. For the same compound, the “Structural based (HCI)” value ([3]; In vitro Assay, ref Tolosa 2012) was “+VE”, the “DILI in vitro assay prediction, Tolosa (2012)” value ([3]; Structural based (HCI), HepG2, ref Tolosa et al. 2012) was “+VE” and the “HepaRG <25x Avg Cmax ATP” value ([4]; HepaRG, ATP endpoint, cut-off <25x Avg Cmax) was “+ve”. The “HepaRG <100x Avg Cmaxu ATP” value ([4]; HepaRG, ATP endpoint, cut-off <100x Avg Cmaxu) was “+ve (<100x Avg Cmaxu)”, the “HepaRG <25x Avg Cmax HCS” value ([4]; HepaRG, HCS endpoints, cut-off <25x Avg Cmax) was “+ve” and the “HepaRG <100x Avg Cmaxu HCS” value ([4]; HepaRG, HCS endpoints, cut-off <100x Avg Cmaxu) was “+ve (<100x Avg Cmaxu)”. For the same compound, the “HepaRG <25x Avg Cmax All” value ([4]; HepaRG, all endpoints (ATP and HCS), cut-off <25x Avg Cmax) was “+ve”, the “HepaRG Cmax max All” value ([4]; HepaRG, all endpoints, Cmax max used) was “+ve” and the “HepaRG Cmax min All” value ([4]; HepaRG, all endpoints, Cmax min used) was “+ve”. The “HepaRG <10 uM All” value ([4]; HepaRG, all endpoints, cut-off <10 uM) was “+ve (<10 uM)”, the “HepaRG <100x Avg Cmaxu All” value ([4]; HepaRG, all endpoints, cut-off <100x Avg Cmaxu) was “+ve (<100x Avg Cmaxu)” and the AC50 ([4]; HepaRG, read-out: ATP endpoint AC50) was 9.16 µM. It also gave a minimal effective concentration ([4]; HepaRG, read-out: ATP endpoint MEC) of 1.28 µM, an AC50 ([4]; HepaRG, read-out: HCS endpoint AC50) of 115 µM and a minimal effective concentration ([4]; HepaRG, read-out: HCS endpoint MEC) of 5.78 µM. For the same compound, the “DILI prediction HepaRG spheroids (HCS-MEC)” value [4, 17] was “+VE (MEC < 25 × Cmax.tot cut-off)”, the “detection in 3D microtissues” value [5] was “detected” and the “Inhibition of rBsep cutoff<1& cmax u>.2” value [6] was “-VE”. For the same compound, the “Inhibition of rBsep cutoff<3” value [6] was “-VE”, the Cluser analysis [7, 18] was “-VE” and the “Structural based (HCI)” value [7, 18] was “+VE”. For the same compound, the “DILI in vitro assay prediction, Persson (2013)” value ([7]; Structural based (HCI), HepG2, ref Persson et al. 2013) was “-VE”, the “Assigned DILI category” value ([8]; Chen et al. 2016 or literature alignment, ref Chen et al. 2016) was 3 and the “In vivo DILI” value ([8]; ref Dawson 2012) was “+VE”. The “In vivo DILI” value ([8]; ref Gustafsson 2014) was “+VE”, the “In vivo DILI” value ([8]; ref O'Brien 2006) was “+VE” and the “In vivo DILI” value ([8]; ref Persson 2013) was “+VE”. The “In vivo DILI” value ([8]; ref Tolosa 2012) was “+VE”, the “In vivo DILI” value ([8]; ref Vorrink 2018) was “+VE” and the “hLiMTs ATP <20 x Cmax” value ([9]; In vitro Assay, ref Vorrink 2018) was “+VE (IC20 < 20 × Cmax.tot cut-off)”. The “DILI in vitro assay prediction, Vorrink (2018)” value ([9]; PHH spheroids, ATP, 14 days, IC20 < 20 × Cmax.tot, ref Vorrink et al. 2018) was “+VE (IC20 < 20 × Cmax.tot cut-off)”, the “Human plasma Cmax,u” value [10] was 295 nM and the “DILI severity category (Chen et al. [2016])” value ([11]; LTKB DILIrank category, ref Chen et al. 2016) was “Most”. For the same compound, the “DILI severity category (Chen 2016)” value ([11]; human DILI classification, LTKB DILIrank, ref Chen et al. 2016) was “Most”, the DILI severity category ([11]; human DILI severity, ref Chen et al.) was “Most” and the “DILI +VE (5-8), DILI -VE (-4)” value ([11]; ref Chen 2016) was “+VE”. For the same compound, the DILI severity category ([11]; ref Chen 2016) was “vMost-DILI-Concern”, the “toxicity in PHH spheroids” value [12] was “no toxicity” and the AC50 ([13]; Homo sapiens, read-out: ATP endpoint AC50) was 6.3 µM. For the same compound, the minimal effective concentration ([13]; Homo sapiens, read-out: ATP endpoint MEC) was 0.932 µM, the minimal effective concentration ([13]; Homo sapiens, read-out: HCS endpoint MEC) was 6.54 µM and the “DILI prediction hLiMTs (HCS-MEC)” value [13, 17] was “+VE (MEC < 25 × Cmax.tot cut-off)”. The “hLiMTs <25x Avg Cmax ATP” value ([13]; hLiMTs, ATP endpoint, cut-off <25x Avg Cmax) was “+ve”, the “hLiMTs <100x Avg Cmaxu ATP” value ([13]; hLiMTs, ATP endpoint, cut-off <100x Avg Cmaxu) was “+ve (<100x Avg Cmaxu)” and the “hLiMTs <25x Avg Cmax HCS” value ([13]; hLiMTs, HCS endpoints, cut-off <25x Avg Cmax) was “+ve”. The “hLiMTs <100x Avg Cmaxu HCS” value ([13]; hLiMTs, HCS endpoints, cut-off <100x Avg Cmaxu) was “+ve (<100x Avg Cmaxu)”, the “hLiMTs <25x Avg Cmax All” value ([13]; hLiMTs, all endpoints (ATP and HCS), cut-off <25x Avg Cmax) was “+ve” and the “hLiMTs Cmax max All” value ([13]; hLiMTs, all endpoints, Cmax max used) was “+ve”. For the same compound, the “hLiMTs Cmax min All” value ([13]; hLiMTs, all endpoints, Cmax min used) was “+ve”, the “hLiMTs <10 uM All” value ([13]; hLiMTs, all endpoints, cut-off <10 uM) was “+ve (<10 uM)” and the “hLiMTs <100x Avg Cmaxu All” value ([13]; hLiMTs, all endpoints, cut-off <100x Avg Cmaxu) was “+ve (<100x Avg Cmaxu)”. The clinical liver finding [14] was “fatal hepatotoxicity”, the “Structural based (HCI)” value ([15]; In vitro Assay, ref O'Brien 2006) was “+VE” and the “DILI in vitro assay prediction, O'Brien (2006)” value ([15]; Structural based (HCI), HepG2, ref O'Brien et al. 2006) was “+VE (lowest HCI endpoint IC50 (or in the absence of dose–response < 100 µM) < 30 × total human plasma exposure levels (Cmax.tot))”. For the same compound, the Cmax [16] was 820 nM.
